This is an account of results in patent US11617730B2, “Pharmaceutical formulation for administering paracetamol by buccal/gingival route” (Unither Pharmaceuticals, priority 2017, dated 2023).

Data set [1] is described as follows: DOSY 1H-NMR measurement of diffusion coefficients and hydrodynamic radius (Stokes-Einstein). Type of data set: physicochemical. The note with it: in ethanol; reference samples, 25° C. The text has this: For the purposes of the present invention, “hydrodynamic radius”, or RH, means the radius of a solute in solution, said solute being assumed to be spherical, as defined by the following Stokes-Einstein relation [Edward, J. T. (1970) J. Chem. Educ. 47, 261; Einstein, A. (1905) Annalen Der Physik 17, 549-560; Einstein, A. (1906) Annalen Der Physik 19, 371-381]:
[formula] • D is the diffusion coefficient of the solute in the solvent (expressed in m^2·s^−1), • kB is the Boltzmann constant, and is kB=1.3806·10^−23 J·K^−1, • T is the temperature of the medium (expressed in K), • ρ is the viscosity of the medium (expressed in Pa·s, or equivalent in kg·s^−1·m^−1), and • RH is expressed in m. […]
The sizes of molecules in solution can be estimated by liquid NMR using so-called diffusion experiments to measure the diffusion coefficients of species in solution. The experiment is performed by applying a magnetic field gradient in a given direction, the direction in which the diffusion of particles is measured. […]
This table also includes viscosity values obtained from the literature [Khattab, I. S., Bandarkar, F., Fakhree, M. A. A., and Jouyban, A. (2012) Korean J. Chem. Eng. 29, 812-817], the mole fraction of ethanol and the hydrodynamic radius calculated from the Stokes-Einstein equation. The accuracy of the value thus calculated is estimated at ±0.1 Å. […]

A short description of data set [2]: Stability / pre-stability studies of paracetamol in hydroalcoholic solution. Type of data set: physicochemical.

In the case of `CC(=O)Nc1ccc(O)cc1` [paracetamol], in data set [1], the RH of paracetamol is 4.2 Å. The “Coloration in pre-stability studies” value in data set [2] (6 months at 40° C., concentration greater than 115 mg/mL) was “appearance of pink coloration”. In addition, the “Recrystallization in stability studies” value in data set [2] (concentration too high, typically above 125 mg/mL) is “recrystallizes over time”.
